Assay results reported in US7507792B2, “MDA-7 proteins and methods of use thereof” (The Trustees of Columbia University In The City of New York, priority 1993, dated 2009).
“Also recorded” adds a separate entry of the source.

Legend:
Format in all cases: cell-based, human
H0-1 cells = assay: Northern blotting of H0-1 RNA probed with mda cDNA clones; conditions: 24 hours
Experimental: Ten micrograms of total cellular RNA were separated on a 1% agarose gel, transferred to nylon membranes and then hybridized individually with radioactive probes prepared using appropriate inserts from the cDNA clones.
The mass excision of the library was performed using ExAssist helper phage as described above. The SOLR strain of Escherichia coli and cDNA phagemids were mixed at 37° C. for 15 min and plated onto LB plates containing ampicillin and IPTG/X-gal. White colonies were chosen at random, isolated and grown in LB medium. Plasmid minireps and restriction enzyme digestions were performed to confirm the presence of inserts. The inserts were isolated and used as robes for Northern blotting analysis (5,25). […] Radiolabeled probes were generated by random oligonucleotide priming (25). Prehybridization, hybridization, posthybridization washes, and autoradiography were performed as described (5,18,25).

wild-type p53 protein = assay: Immunoprecipitation of p53 in H0-1 cells; conditions: IFN-β 2000 units/ml, MEZ 10 ng/ml
Experimental: (§1) Immunoprecipitation analyses were performed as described previously (Duigou et al., 1991; Su et al., 1993; Jiang et al., 1994b). […] Cultures were starved of methionine for 1 h at 37° C. in methionine-free medium, cells were concentrated by pelleting and labeled for 1 h (p53) or 4 h (p21 and Actin) at 37° in 1 ml of the same medium with 100 μCi of [^35S] (NEN; Express ^35S). After labeling, the cells were washed twice with ice-cold phosphate-buffered saline and lysed for 1 h on ice by the addition of RIPC (20 mM Tris-base, pH 7.5, 500 mM NaCl, 0.05% Nonidet P-40, 100 μg/ml phenylmethylsulfonyl fluoride and 0.02% sodium azide). The lysate was clarified by centrifugation in an Eppendorf microfuge at 10,000×g for 10 min at 4° C. H0-1 samples containing 4×10^6 counts were incubated with 2 μg of p53 monoclonal antibody (Ab1; PAb421) (Oncogene Sciences), WAF1/CIP1 (C-19) (Santa Cruz Biotechnology) (or MDA-6 peptide-derived) rabbit polyclonal IgG or actin monoclonal antibody (Oncogene Sciences) with rocking at 4° C. for 24 h. Labeled cell lysates were also prepared from F0-1, L0-1, SH-1, WM239, FM516-SV, SW480, MeWo, human skin fibroblasts and Saos-2 cells. Samples containing 4×10^6 counts were incubated with 2 μg of the p53 monoclonal antibody Ab1 (PAb421) or Ab3 (PAb240) (Oncogene Sciences). […]

p21 protein = assay: Immunoprecipitation of p21 in H0-1 cells; conditions: IFN-β 2000 units/ml, MEZ 10 ng/ml
Experimental: as §1

HL-525 cells = assay: OKM1 reactivity (immunofluorescence); conditions: TPA 3 nM, RA 1 μM or Vit D3 400 nM, percent OKM1 positive cells
Experimental: (§2) HL-60 cells were originally provided by Dr. R. C. Gallo (National Cancer Institute, Bethesda, Md.) (Collins et al., 1978; Huberman & Callaham, 1979). HL-60 cells designated HL-525 were derived by cloning HL-60 cells after subculturing 102 times in the presence of increasing concentrations (up to 3 μM) of TPA at 5- to 8-day intervals (Homma et al., 1986; Mitchell et al., 1986). […] Prior to the experiments described in this study, the HL-525 cells were subcultured more than 20 times in the absence of TPA. Cells were grown in 100-mm tissue culture dishes in RPMI 1640 medium supplemented with 20% fetal bovine serum, penicillin (100 units/ml) and streptomycin (100 μg/ml) (Grand Island Biological Co., NY) at 37° C. in an atmosphere of 5% CO2 in air in a humidified incubator. The 1,25-(OH)2D3(Vit D3) and TPA were dissolved in a final concentration of 0.01% DMSO, and all-trans retinoic acid (RA) was dissolved in 0.1% DMSO in culture medium. […] Control cultures were treated with DMSO at a final concentration of 0.1% in culture medium. For experiments designed to test the effect of DMSO on HL-60 and HL-525 cells, DMSO was added to tissue culture medium at a final concentration of 1%. Stock solutions of CHX (10 mg/ml) were prepared in culture medium. CHX was added at a final concentration of 10 μg/ml. To examine a requirement for protein synthesis on mda-6 gene expression, HL-60 or HL-525 cells were seeded into 150 mm Petri dishes (5×10^5 cells/ml) in 30 ml of medium. CHX was added to a final concentration of 10 μg/ml 15 min prior to the addition of TPA to 3 nM. Cells were harvested at various times after addition of TPA for subsequent RNA isolation and analysis.
(§3) Cell counts were determined by hemocytometer chamber counting. Immunofluorescence tests for reactivity with the OKM1 antibody (Ortho Pharmaceutical Corp., Raritan, N.J.) were performed as previously described (Murao et al., 1983).

HL-60 cells = assay: OKM1 reactivity (immunofluorescence); conditions: TPA 3 nM, RA 1 μM or Vit D3 400 nM, percent OKM1 positive cells
Experimental: as §2, §3

C=C(C)[C@@]12O[C@@]3(c4ccccc4)O[C@@H]1[C@@H]1[C@@H]4O[C@]4(CO)[C@@H](O)[C@]4(O)C(=O)C(C)=C[C@H]4[C@@]1(O3)[C@H](C)[C@H]2OC(=O)/C=C/C=C/c1ccccc1 [MEZ, mezerein]
mda-3 expression (H0-1 cells): induced; also recorded: Increased expression
wild-type p53 protein level (wild-type p53 protein; 24 h): no significant change
wild-type p53 protein level (wild-type p53 protein; over 48, 72, 96 h): decreases
p21 mRNA and protein (p21 protein; 24 h): induced
p21 protein level (p21 protein; over 48, 72, 96 h): increases

CC1=C(/C=C/C(C)=C/C=C/C(C)=C/C(=O)O)C(C)(C)CCC1 [RA, trans-retinoic acid]
OKM1 reactivity, Days of induction 4 (HL-525 cells): 10%
OKM1 reactivity, Days of induction 6 (HL-525 cells): 13%
OKM1 reactivity, Days of induction 2 (HL-60 cells): 49%
OKM1 reactivity, Days of induction 4 (HL-60 cells): 76%
OKM1 reactivity, Days of induction 6 (HL-60 cells): 77%

CCCCCCCCCCCCCC(=O)O[C@@H]1[C@@H](C)[C@@]2(O)[C@@H](C=C(CO)C[C@]3(O)C(=O)C(C)=C[C@@H]23)[C@@H]2C(C)(C)[C@]12OC(C)=O [TPA, 12-O-tetradecanoyl-phorbol-13-acetate]
OKM1 reactivity, Days of induction 4 (HL-525 cells): 8%
OKM1 reactivity, Days of induction 6 (HL-525 cells): 4%
OKM1 reactivity, Days of induction 2 (HL-60 cells): 55%
OKM1 reactivity, Days of induction 4 (HL-60 cells): 81%
OKM1 reactivity, Days of induction 6 (HL-60 cells): 95%
